From USRE39616E1, “Aminoindan derivatives” (priority 1996, dated 2007)
Read-outs that look alike come from different tables or passages of the source.

Experiments:
[1] = molecular target: T1, whole brain AChE (Mus musculus, UniProt P21836); conditions: for AChE Inhibition Ex vivo ED50 (AC): mice, whole brain, at peak of activity; for AChE Inhibition Time to peak activity t: mouse, in vivo
T1 sequence (P21836 32-614): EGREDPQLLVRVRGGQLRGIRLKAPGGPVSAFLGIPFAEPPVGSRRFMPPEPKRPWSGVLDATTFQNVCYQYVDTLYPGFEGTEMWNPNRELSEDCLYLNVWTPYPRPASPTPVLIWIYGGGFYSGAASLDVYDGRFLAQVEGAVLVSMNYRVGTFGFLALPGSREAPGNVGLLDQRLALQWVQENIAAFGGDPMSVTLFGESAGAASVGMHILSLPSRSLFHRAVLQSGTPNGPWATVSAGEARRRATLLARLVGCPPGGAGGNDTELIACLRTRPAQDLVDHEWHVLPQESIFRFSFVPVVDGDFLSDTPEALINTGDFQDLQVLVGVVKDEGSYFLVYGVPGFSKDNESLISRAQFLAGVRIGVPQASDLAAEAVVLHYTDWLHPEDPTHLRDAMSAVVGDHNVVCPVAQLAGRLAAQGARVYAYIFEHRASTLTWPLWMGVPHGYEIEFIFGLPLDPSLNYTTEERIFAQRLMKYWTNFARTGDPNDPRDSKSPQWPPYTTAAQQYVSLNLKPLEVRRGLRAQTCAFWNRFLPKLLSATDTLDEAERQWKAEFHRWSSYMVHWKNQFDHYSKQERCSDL
Protocol: Test drugs or saline were administered sub-cutaneously to male mice (Sabra strain, 28-35 g). […] The mice were sacrificed 15, 30, 50, 70, 90, 120 or 180 minutes after drug administration, the brains rapidly removed (minus cerebellum), weighed and homogenized in 0.1 M phosphate buffer, pH 8.0, containing Triton (1 mg/100 g tissue) and centrifuged to remove cell debris. Aliquots (25 μl) of the supernatant were then incubated with acetylthiocholine and DTNB. AChE activity was measured as described above. The % inhibition of whole brain AChE by each dose of drug was calculated by comparison with enzyme activity from 3 saline treated control mice run at the same time.

[2] = molecular target: T2, MAO-B (Rattus norvegicus, UniProt P19643); experiment: Inhibition of MAO activity in vitro, PEA as substrate; assay type: biochemical; set-up: The MAO enzyme source was a homogenate of rat brain in 0.3M sucrose; from tissue; host or cells: rat brain homogenate, 600 g supernatant
T2 sequence (P19643 1-520): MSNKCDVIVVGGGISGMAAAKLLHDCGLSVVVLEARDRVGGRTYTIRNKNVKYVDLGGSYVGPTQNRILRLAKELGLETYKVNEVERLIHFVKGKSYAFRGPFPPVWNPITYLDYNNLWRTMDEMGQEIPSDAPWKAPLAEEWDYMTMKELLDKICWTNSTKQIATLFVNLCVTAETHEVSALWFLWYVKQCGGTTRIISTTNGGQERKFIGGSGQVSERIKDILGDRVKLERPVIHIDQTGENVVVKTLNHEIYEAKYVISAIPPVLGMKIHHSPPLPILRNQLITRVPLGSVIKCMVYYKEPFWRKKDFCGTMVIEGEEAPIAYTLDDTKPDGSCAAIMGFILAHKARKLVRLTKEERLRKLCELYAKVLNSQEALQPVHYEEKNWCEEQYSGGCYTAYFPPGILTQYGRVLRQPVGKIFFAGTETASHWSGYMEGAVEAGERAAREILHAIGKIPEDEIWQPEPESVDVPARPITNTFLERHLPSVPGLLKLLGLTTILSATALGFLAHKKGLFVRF
Protocol: (§1) Substrate concentrations used were 50 μM (PEA) and 1 mM (5-HT).

[3] = molecular target: T3, MAO-A (Mus musculus, UniProt Q64133); experiment: Inhibition of MAO activity ex vivo (brain); assay type: in vivo, mice; conditions: mice, brain tissue
T3 construct: from tissue; host or cells: mouse brain
T3 sequence (Q64133 1-526): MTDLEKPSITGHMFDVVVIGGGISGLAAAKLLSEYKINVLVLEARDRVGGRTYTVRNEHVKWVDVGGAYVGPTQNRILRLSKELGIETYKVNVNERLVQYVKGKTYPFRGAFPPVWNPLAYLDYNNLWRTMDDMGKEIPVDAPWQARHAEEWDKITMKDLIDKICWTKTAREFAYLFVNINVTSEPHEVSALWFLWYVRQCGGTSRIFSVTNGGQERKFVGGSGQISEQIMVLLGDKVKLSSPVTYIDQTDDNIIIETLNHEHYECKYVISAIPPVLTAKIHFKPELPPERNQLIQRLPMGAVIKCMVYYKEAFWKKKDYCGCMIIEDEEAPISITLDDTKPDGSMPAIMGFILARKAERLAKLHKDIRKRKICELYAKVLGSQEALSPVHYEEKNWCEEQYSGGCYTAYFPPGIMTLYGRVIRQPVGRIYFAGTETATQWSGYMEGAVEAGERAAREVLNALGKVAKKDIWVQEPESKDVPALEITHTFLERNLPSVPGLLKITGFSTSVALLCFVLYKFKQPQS
Protocol: as §1
(§2) Male Sabra mice, weighing 45-50 g were injected with test compound solutions (prepared in 0.9% saline). Each dose was administered to two or three mice. The mice were sacrificed two hours after drug administration or at a time corresponding to the peak AChE inhibition time (see Table 11). The brain and liver were rapidly dissected and stored in appropriate vials on ice. The tissues were weighed, diluted to ½ in sucrose 0.3M and stored at −20° C. before performance of the MAO assay described above. The results given in Table 11 relate to measurements made on brain tissue only.

[4] = molecular target: T4, MAO-B (Mus musculus, UniProt Q8BW75); experiment: Inhibition of MAO activity ex vivo (brain); assay type: in vivo, mice; conditions: mice, brain tissue
T4 construct: from tissue; host or cells: mouse brain
T4 sequence (Q8BW75 1-520): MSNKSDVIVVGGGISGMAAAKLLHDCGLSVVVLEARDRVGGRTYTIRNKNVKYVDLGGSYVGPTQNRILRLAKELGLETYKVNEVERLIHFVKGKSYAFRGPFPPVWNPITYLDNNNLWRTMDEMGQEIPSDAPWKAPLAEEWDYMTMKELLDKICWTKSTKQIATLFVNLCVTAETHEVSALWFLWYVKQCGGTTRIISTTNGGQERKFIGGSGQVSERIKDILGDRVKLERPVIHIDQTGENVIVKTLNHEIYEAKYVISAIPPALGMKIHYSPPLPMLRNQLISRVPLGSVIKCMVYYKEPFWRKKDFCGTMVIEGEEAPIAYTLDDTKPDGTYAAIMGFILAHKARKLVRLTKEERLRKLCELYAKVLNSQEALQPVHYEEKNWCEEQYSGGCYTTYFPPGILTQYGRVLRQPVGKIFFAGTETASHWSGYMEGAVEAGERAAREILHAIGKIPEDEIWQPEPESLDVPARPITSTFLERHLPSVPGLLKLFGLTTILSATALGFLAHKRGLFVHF
Protocol: as §1, §2

[5] = system: mice; conditions: mouse, in vivo
Protocol: Therapeutic Ratio was calculated as LD50 divided by ED50 of ex vivo acetylcholine esterase inhibition.

[6] = molecular target: T5, MAO-A (Rattus norvegicus, UniProt P21396); experiment: Inhibition of MAO activity in vitro, 5-HT as substrate; assay type: biochemical; set-up: The MAO enzyme source was a homogenate of rat brain in 0.3M sucrose; from tissue; host or cells: rat brain homogenate, 600 g supernatant; conditions: 5-HT substrate
T5 sequence (P21396 1-526): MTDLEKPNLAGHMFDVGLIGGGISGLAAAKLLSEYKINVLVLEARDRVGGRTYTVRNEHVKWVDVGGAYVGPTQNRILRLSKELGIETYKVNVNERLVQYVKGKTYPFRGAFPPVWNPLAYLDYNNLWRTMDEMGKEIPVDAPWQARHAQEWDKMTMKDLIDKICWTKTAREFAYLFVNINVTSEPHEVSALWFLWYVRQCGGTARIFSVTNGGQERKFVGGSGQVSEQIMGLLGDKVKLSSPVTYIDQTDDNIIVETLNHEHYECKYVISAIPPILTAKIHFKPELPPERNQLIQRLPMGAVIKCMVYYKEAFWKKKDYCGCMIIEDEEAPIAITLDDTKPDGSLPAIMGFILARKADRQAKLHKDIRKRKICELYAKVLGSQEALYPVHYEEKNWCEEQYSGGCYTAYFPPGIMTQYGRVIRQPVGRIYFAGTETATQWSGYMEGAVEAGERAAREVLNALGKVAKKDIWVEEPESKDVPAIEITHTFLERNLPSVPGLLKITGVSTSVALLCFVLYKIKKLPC
Protocol: as §1

[7] = molecular target: T6, Human erythrocyte acetylcholinesterase (Homo sapiens, UniProt P22303); experiment: biochemical; assay type: biochemical; conditions: AChE Inhibition In vitro IC50
T6 construct: Human erythrocyte acetylcholinesterase (type XIII, Sigma Israel); purchased Sigma Israel type XIII; host or cells: human erythrocytes
T6 sequence (P22303 32-617 isoform P22303-2 limits assumed): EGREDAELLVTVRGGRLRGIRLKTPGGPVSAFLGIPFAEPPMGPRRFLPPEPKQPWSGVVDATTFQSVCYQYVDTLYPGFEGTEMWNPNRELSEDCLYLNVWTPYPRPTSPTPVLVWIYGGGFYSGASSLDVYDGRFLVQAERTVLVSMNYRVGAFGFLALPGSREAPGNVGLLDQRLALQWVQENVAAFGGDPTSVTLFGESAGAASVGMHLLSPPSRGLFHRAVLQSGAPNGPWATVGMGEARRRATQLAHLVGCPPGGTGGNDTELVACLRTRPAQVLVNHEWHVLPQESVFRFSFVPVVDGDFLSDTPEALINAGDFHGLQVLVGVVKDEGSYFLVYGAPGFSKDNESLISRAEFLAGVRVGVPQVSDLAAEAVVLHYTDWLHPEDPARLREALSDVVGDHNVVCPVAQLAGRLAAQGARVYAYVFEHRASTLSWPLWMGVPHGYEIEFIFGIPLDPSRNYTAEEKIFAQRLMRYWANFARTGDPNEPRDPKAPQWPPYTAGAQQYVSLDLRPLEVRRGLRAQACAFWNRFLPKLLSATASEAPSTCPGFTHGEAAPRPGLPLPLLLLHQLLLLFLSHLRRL
Protocol: Human erythrocyte acetylcholinesterase (type XIII, Sigma Israel), was prepared in a stock solution of 1 U/ml, containing Triton (1%) and bovine serum albumin (0.05%) in phosphate buffer (pH 8). The enzyme (0.05U) was incubated with 3-5 different concentrations of test compound (in triplicate) for periods of from 15 to 60 minutes at 37° C. […] The percentage inhibition of AChE by each concentration of drug is calculated by comparison with that of enzyme in the absence of drug.

[8] = MAO-B Inhibition In vitro IC50, rat brain homogenate
[9] = MAO-A Inhibition In vitro IC50, rat brain homogenate
[10] = rat brain homogenate, read-out: MAO-B Inhibition In vitro IC50
[11] = rat brain homogenate, read-out: MAO-A Inhibition In vitro IC50

SMILES | AChE Inhibition Ex vivo ED50 (AC) [1] [µmol/kg] | AChE Inhibition Time to peak activity t [1] [min] | IC50 [2, 8] [µM] | MAO-A Inhibition Ex vivo ED50 [3] | MAO-B Inhibition Ex vivo ED50 [4] | Acute Toxicity LD50 (LD) [5] [µmol/kg] | Therapeutic Ratio LD/AC [5] | IC50 [6, 9] [µM] | IC50 [7] [µM] | IC50 [2, 10] [µM] | IC50 [6, 11] [µM]
C#CCNC1CCc2ccc(OC(=O)N(C)CCC)cc21 (stereo not shown) [Compound 26] | 120 | 30 to 60 | 264 | >>440 μmoles/kg | 333 µmol/kg | 1200 | 9 | 114 | 17 | – | –
C#CCNC1CCc2ccc(OC(=O)N(C)CCCCCC)cc21 (stereo not shown) [Compound 36] | >400 | – | > 1000 | >100 µmol/kg | >100 µmol/kg | >1000 | – | > 1000 | 15 | – | –
C#CCNC1CCc2ccc(OC(=O)N(C)c3ccc(OC)cc3)cc21 (stereo not shown) [Compound 61] | 47 | – | – | >100 µmol/kg | >100 µmol/kg | – | – | – | 0.75 | 500 | 700
C#CCNC1CCc2ccc(OC(=O)N(C)C3CCCCC3)cc21 (stereo not shown) [Compound 38] | >1000 | – | – | >400 µmol/kg | >400 µmol/kg | – | – | – | 33 | 10 | 170
C#CCN(C)C1CCc2cccc(OC(=O)N(C)C)c21 (stereo not shown) [Compound 32] | 7.8 | 15 | 500 | >>20 μmoles/kg | >>20 μmoles/kg | 68 | 9.0 | 190 | 3.7 | – | –
C#CCNC1CCc2ccc(OC(=O)N(C)Cc3ccccc3)cc21 (stereo not shown) [Compound 63] | 140 | 60 to 90 | – | >300 µmol/kg | >300 µmol/kg | 1300 | 9.3 | – | 2.5 | 120 | 40
